Key:
[1] = target: T1, CCK-1 receptor (Homo sapiens, UniProt P32238); assay: CCK1 binding assay ([125I]-BH-CCK-8S displacement, CHO-K1 membranes); conditions: membranes of CHO-K1 cells stably transfected with the CCK-1 receptor, 20 pM [125I]-BH-CCK-8S, 0.3 μM PD-134,308 present, 60 min at 21±3° C.; for Ki: read-out: CCK1 pKi (converted)
T1 construct: expressed in transfected cells; host or cells: CHO-K1
T1 sequence (P32238 1-428): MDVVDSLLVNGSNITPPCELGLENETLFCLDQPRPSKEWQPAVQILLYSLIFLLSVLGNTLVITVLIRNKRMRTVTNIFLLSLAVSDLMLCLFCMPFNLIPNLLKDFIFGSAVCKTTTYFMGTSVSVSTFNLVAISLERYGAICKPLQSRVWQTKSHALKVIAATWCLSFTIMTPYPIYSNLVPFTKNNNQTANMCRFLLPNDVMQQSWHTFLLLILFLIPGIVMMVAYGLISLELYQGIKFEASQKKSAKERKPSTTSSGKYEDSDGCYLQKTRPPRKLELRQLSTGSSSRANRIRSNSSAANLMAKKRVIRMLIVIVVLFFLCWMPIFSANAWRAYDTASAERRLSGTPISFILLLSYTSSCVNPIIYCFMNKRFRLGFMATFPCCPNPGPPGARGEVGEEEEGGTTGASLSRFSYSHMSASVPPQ
Method in brief: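 Membranes from CHO-K1 cells stably expressing CCK-1 incubated 1 h at 21±3° C with 20 pM [125I]-BH-CCK-8S in HEPES buffer pH 7.2 containing 0.3 μM PD-134,308 to block CCK-2. Bound radioactivity read by gamma counting after filtration. pKi derived via Cheng-Prusoff, with specific binding defined using 2-NAP.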

[2] = target: T2, CCK2 receptor (Homo sapiens, UniProt P32239); assay: CCK2 binding assay ([125I]-BH-CCK-8S displacement, HEKZFP membranes); conditions: membranes of doxycycline-induced HEKZFP cells, 20 pM [125I]-BH-CCK-8S, 60 min at 21±3° C.; for Ki: read-out: CCK2 pKi (converted)
T2 construct: analyzed for ZFP expression as well as CCK2R induction upon addition of doxycycline to the culture medium; endogenous in cells
T2 sequence (P32239 1-447): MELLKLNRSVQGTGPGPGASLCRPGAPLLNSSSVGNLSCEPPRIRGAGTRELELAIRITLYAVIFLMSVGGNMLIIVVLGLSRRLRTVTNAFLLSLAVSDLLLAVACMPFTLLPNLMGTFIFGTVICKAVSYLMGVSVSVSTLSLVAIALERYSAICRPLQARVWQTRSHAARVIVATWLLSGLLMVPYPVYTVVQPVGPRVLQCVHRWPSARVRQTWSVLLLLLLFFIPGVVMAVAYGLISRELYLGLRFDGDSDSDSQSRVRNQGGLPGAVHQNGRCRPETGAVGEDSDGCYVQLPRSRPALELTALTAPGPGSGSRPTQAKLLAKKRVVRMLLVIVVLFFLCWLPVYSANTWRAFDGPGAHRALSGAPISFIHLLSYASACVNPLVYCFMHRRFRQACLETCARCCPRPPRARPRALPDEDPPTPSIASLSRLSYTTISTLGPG

| SMILES | Ki [1] | Ki [2] | CCK1 pKi [1] | CCK2 pKi [2] |
| --- | --- | --- | --- | --- |
| O=C(N[C@@H](Cc1ccc(Cl)c(Cl)c1)C(=O)O)c1ccc(Cl)cc1NS(=O)(=O)c1c(F)cccc1F [Example 119, (S)-2-[4-Chloro-2-(2,6-difluoro-benzenesulfonylamino)-benzoylamino]-3-(3,4-dichloro-phenyl)-propionic acid] | 501 nM | 200 nM | – | – |
| O=C(NCCc1ccc(Cl)cc1Cl)c1ccccc1NS(=O)(=O)c1cccc2nsnc12 [Example 75, 2-(Benzo[1,2,5]thiadiazole-4-sulfonylamino)-N-[2-(2,4-dichloro-phenyl)-ethyl]-benzamide] | 1000 nM | 3980 nM | – | – |
| CN(CCc1ccccc1)C(=O)c1ccc(Br)cc1NS(=O)(=O)c1cccc2nsnc12 [Example 20, 2-(Benzo[1,2,5]thiadiazole-4-sulfonylamino)-4-bromo-N-methyl-N-phenethyl-benzamide] | 2000 nM | 100 nM | – | – |
| CC(CNC(=O)c1ccc(I)cc1NS(=O)(=O)c1c(F)cccc1F)c1ccc([N+](=O)[O-])cc1 (stereo not drawn) [Example 48, 2-(2,6-Difluoro-benzenesulfonylamino)-4-iodo-N-[2-(4-nitro-phenyl)-propyl]-benzamide] | 50.1 nM | 2000 nM | – | – |
| O=C(N[C@@H](Cc1ccc(F)cc1)C(=O)O)c1ccc(Cl)cc1NS(=O)(=O)c1cccc2nsnc12 [Example 76, (S)-2-[2-(Benzo[1,2,5]thiadiazole-4-sulfonylamino)-4-chloro-benzoylamino]-3-(4-fluoro-phenyl)-propionic acid] | 3160 nM | 39.8 nM | – | – |
| CC(C)(c1ccc(Cl)cc1)[C@H](NC(=O)c1ccc(I)cc1NS(=O)(=O)c1cccc2nsnc12)C(=O)O [Example 95, (S)-2-[2-(Benzo[1,2,5]thiadiazole-4-sulfonylamino)-4-iodo-benzoylamino]-3-(4-chloro-phenyl)-3-methyl-butyric acid] | 3160 nM | 794 nM | – | – |
| O=C(N[C@H](Cc1ccccc1)C(=O)O)c1ccc(I)cc1NS(=O)(=O)c1c(F)cccc1F [Example 17, (R)-2-[2-(2,6-Difluoro-benzenesulfonylamino)-4-iodo-benzoylamino]-3-phenyl-propionic acid] | 79.4 nM | 2510 nM | – | – |
| CCOC(=O)[C@H](Cc1ccc(F)c(Br)c1)NC(=O)c1cc(Cl)c(Cl)cc1NS(=O)(=O)c1cccc2nsnc12 [Example 163, (S)-2-[2-(Benzo[1,2,5]thiadiazole-4-sulfonylamino)-4,5-dichloro-benzoylamino]-3-(3-bromo-4-fluoro-phenyl)-propionic acid ethyl ester] | 126 nM | 398 nM | – | – |
| O=C(N[C@@H](Cc1ccccc1)C(=O)O)c1cc(Cl)c(Cl)cc1NS(=O)(=O)c1cccc2nsnc12 [Example 3, 2-[2-(Benzo[1,2,5]thiadiazole-4-sulfonylamino)-4,5-dichloro-benzoylamino]-3-phenyl-propionic acid] | 1000 nM | 39.8 nM | – | – |
| C[C@@H](NC(=O)c1ccc(Cl)cc1NS(=O)(=O)c1cccc2nsnc12)[C@@H](O)c1ccc(Cl)cc1 [Example 55, 2-(Benzo[1,2,5]thiadiazole-4-sulfonylamino)-4-chloro-N-[(1R,2S)-2-(4-chloro-phenyl)-2-hydroxy-1-methyl-ethyl]-benzamide] | 39.8 nM | 1000 nM | – | – |
| O=C(N[C@@H](Cc1ccc(Cl)cc1)C(=O)O)c1cc(Cl)c(Cl)cc1NS(=O)(=O)c1cccc2nsnc12 [Example 68, (S)-2-[2-(Benzo[1,2,5]thiadiazole-4-sulfonylamino)-4,5-dichloro-benzoylamino]-3-(4-chloro-phenyl)-propionic acid] | 316 nM | 31.6 nM | – | – |

Continued, values first:

| Ki [1] | Ki [2] | CCK1 pKi [1] | CCK2 pKi [2] | SMILES |
| --- | --- | --- | --- | --- |
| – | – | 6.8 | 8.2 | O=C(N[C@@H](Cc1ccc(F)c(Br)c1)C(=O)O)c1cc(Cl)c(Cl)cc1NS(=O)(=O)c1cccc2nccnc12 [Example 160, (S)-3-(3-Bromo-4-fluoro-phenyl)-2-[4,5-dichloro-2-(quinoxaline-5-sulfonylamino)-benzoylamino]-propionic acid] |
| 126 nM | 316 nM | – | – | CC(CNC(=O)c1ccc(I)cc1NS(=O)(=O)c1cccc2nccnc12)c1ccc(Cl)c(Cl)c1 (stereo not drawn) [Example 40, N-[2-(3,4-Dichloro-phenyl)-propyl]-4-iodo-2-(quinoxaline-5-sulfonylamino)-benzamide] |
| 794 nM | 7940 nM | – | – | O=C(O)C[C@@H](Cc1ccc(Cl)c(Cl)c1)NC(=O)c1ccc(Cl)cc1NS(=O)(=O)c1cccc2nccnc12 [Example 82, (R)-3-[4-Chloro-2-(quinoxaline-5-sulfonylamino)-benzoylamino]-4-(3,4-dichloro-phenyl)-butyric acid] |
| 79.4 nM | 200 nM | – | – | COC(=O)[C@H](Cc1ccc(Cl)c(I)c1)NC(=O)c1ccc(I)cc1NS(=O)(=O)c1cccc2nccnc12 [Example 137, (S)-3-(4-Chloro-3-iodo-phenyl)-2-[4-iodo-2-(quinoxaline-5-sulfonylamino)-benzoylamino]-propionic acid methyl ester] |
| 3160 nM | 501 nM | – | – | COC(=O)[C@H](Cc1ccc(Br)s1)NC(=O)c1ccc(Cl)cc1NS(=O)(=O)c1cccc2nccnc12 [Example 8, (S)-3-(5-Bromo-thiophen-2-yl)-2-[4-chloro-2-(quinoxaline-5-sulfonylamino)-benzoylamino]-propionic acid methyl ester] |
| 39.8 nM | 316 nM | – | – | COC(=O)[C@H](Cc1ccc(Cl)c(I)c1)NC(=O)c1ccc(I)cc1NS(=O)(=O)c1cccc2nsnc12 [Example 136, (S)-2-[2-(Benzo[1,2,5]thiadiazole-4-sulfonylamino)-4-iodo-benzoylamino]-3-(4-chloro-3-iodo-phenyl)-propionic acid methyl ester] |
| – | – | 6.4 | 8.0 | O=C(N[C@@H](Cc1ccc(F)c(Br)c1)C(=O)O)c1ccc(Cl)cc1NS(=O)(=O)c1cccc2nccnc12 [Example 159, (S)-3-(3-Bromo-4-fluoro-phenyl)-2-[4-chloro-2-(quinoxaline-5-sulfonylamino)-benzoylamino]-propionic acid] |
| 79.4 nM | 794 nM | – | – | CC(CNC(=O)c1ccc(Cl)cc1NS(=O)(=O)c1cccc2nccnc12)c1ccc(Cl)c(Cl)c1 (racemic) [Example 59, (±)-4-Chloro-N-[2-(3,4-dichloro-phenyl)-propyl]-2-(quinoxaline-5-sulfonylamino)-benzamide] |
| – | – | 7.1 | 6.2 | CC(CNC(=O)c1ccc(Br)cc1NS(=O)(=O)c1cccc2nsnc12)c1ccccc1 (stereo not drawn) [Example 31, 2-(Benzo[1,2,5]thiadiazole-4-sulfonylamino)-4-bromo-N-(2-phenyl-propyl)-benzamide] |
| 794 nM | 126 nM | – | – | COC(=O)[C@H](Cc1ccc(F)c(Br)c1)NC(=O)c1ccc(Br)cc1NS(=O)(=O)c1cccc2nccnc12 [Example 151, (S)-3-(3-Bromo-4-fluoro-phenyl)-2-[4-bromo-2-(quinoxaline-5-sulfonylamino)-benzoylamino]-propionic acid methyl ester] |
| 251 nM | 5.01 nM | – | – | O=C(N[C@@H](Cc1ccc(F)c(Br)c1)C(=O)O)c1ccc(I)cc1NS(=O)(=O)c1cccc2nccnc12 [Example 126, (S)-3-(3-Bromo-4-fluoro-phenyl)-2-[4-iodo-2-(quinoxaline-5-sulfonylamino)-benzoylamino]-propionic acid] |
| 100 nM | 50.1 nM | – | – | O=C(N[C@@H](Cc1ccc(Cl)c(I)c1)C(=O)O)c1ccc(I)cc1NS(=O)(=O)c1cccc2nccnc12 [Example 138, (S)-3-(4-Chloro-3-iodo-phenyl)-2-[4-iodo-2-(quinoxaline-5-sulfonylamino)-benzoylamino]-propionic acid] |
| 63.1 nM | 2510 nM | – | – | CC(CNC(=O)c1ccc(Br)cc1NS(=O)(=O)c1c(F)cccc1F)c1ccc(Cl)c(Cl)c1 (stereo not drawn) [Example 30, 4-Bromo-N-[2-(3,4-dichloro-phenyl)-propyl]-2-(2,6-difluoro-benzenesulfonylamino)-benzamide] |

Source: patent publication US7855292B2, “Sulfonamide compounds” (Janssen Pharmaceutica NV, priority 2004, dated 2010)
